Test system: tobacco budworm (Heliothis virescens [Fabricius])
Experiment: surface-treated diet test against tobacco budworm
Type: in vivo
Conditions: 0.25 millimolar on the surface of the diet, second instar larvae, five-day exposure; for Percent Mortality: compared to the total number of insects infested; for Percent Growth Inhibition: inhibition of insect weight relative to untreated controls
Experimental: Candidate insecticides were evaluated for activity against the tobacco budworm (Heliothis virescens [Fabricius]) in a surface-treated diet test.
In this test one mL of molten (65-70° C.) wheat germ-based artificial diet was pipetted into each well of a four by six (24 well) multi-well plate (ID# 430345-15.5 mm dia.×17.6 mm deep; Corning Costar Corp., One Alewife Center, Cambridge, Mass. 02140). The diet was allowed to cool to ambient temperature before treatment with candidate insecticide.
For a determination of insecticidal activity, solutions of the candidate insecticides were prepared for testing using a Packard 204DT Multiprobe® Robotic System (Packard Instrument Company, 800 Research Parkway, Meriden, Conn. 06450), in which the robot first diluted a standard 50 millimolar DMSO solution of candidate insecticide with a 1:1 water/acetone solution (V/V) in a ratio of 1:7 stock solution to water/acetone. The robot subsequently pipetted 40 microliters of the so-prepared solution onto the surface of the diet in each of three wells in the 24 multi-well plate. The process was repeated with solutions of seven other candidate insecticides. Once treated, the contents of the multi-well plate were allowed to dry, leaving 0.25 millimoles of candidate insecticide on the surface of the diet, or a concentration of 0.25 millimolar. Appropriate untreated controls containing only DMSO on the diet surface were also included in this test.
For evaluations of the insecticidal activity of a candidate insecticide at varying rates of application, the test was established as described above using sub-multiples of the standard 50 millimolar DMSO solution of candidate insecticide. For example, the standard 50 millimolar solution was diluted by the robot with DMSO to give 5, 0.5, 0.05, 0.005, 0.0005 millimolar, or more dilute solutions of the candidate insecticide. In these evaluations there were six replicates of each rate of application placed on the surface of the diet in the 24 multi-well plate, for a total of four rates of application of candidate insecticide in each plate.
In each well of the test plate was placed one second instar tobacco budworm larvae, each weighing approximately five milligrams. After the larvae were placed in each well, the plate was sealed with clear polyfilm adhesive tape. The tape over each well was perforated to ensure an adequate air supply. The plates were then held in a growth chamber at 25° C. and 60% relative humidity for five days (light 14 hours/day).
After the five-day exposure period insecticidal activity for each rate of application of candidate insecticide was assessed as percent inhibition of insect weight relative to the weight of insects from untreated controls, and percent mortality when compared to the total number of insects infested.
The test compounds of formula I are identified by numbers that correspond to those in Table 1.

| SMILES | Percent Mortality [%] | Percent Growth Inhibition [%] |
| --- | --- | --- |
| [O-][N+]1(Cc2ccc(C3OCC(COc4ccccc4)O3)cc2)CCC(C(O)(c2ccc(OC(F)(F)F)cc2)c2ccc(OC(F)(F)F)cc2)CC1 (stereo not drawn) [Compound 94] | 100 | 100 |
| [O-][N+]1(Cc2ccc(C3OCC(CN4CCCC4)O3)cc2)CCC(C(O)(c2ccc(OC(F)(F)F)cc2)c2ccc(OC(F)(F)F)cc2)CC1 (stereo not drawn) [Compound 110] | 100 | 100 |
| [O-][N+]1(Cc2ccc(C3OCCCCO3)cc2)CCC(C(O)(c2ccc(OC(F)(F)F)cc2)c2ccc(OC(F)(F)F)cc2)CC1 (stereo not drawn) [Compound 7] | 100 | 100 |
| [O-][N+]1(Cc2ccc(C3O[C@H]4COC[C@H]4O3)cc2)CCC(C(O)(c2ccc(OC(F)(F)F)cc2)c2ccc(OC(F)(F)F)cc2)CC1 (stereo partly drawn) [Compound 118] | 100 | 100 |
| CN1CCN(C)C1c1ccc(CN2CCC(C(O)(c3ccc(OC(F)(F)F)cc3)c3ccc(OC(F)(F)F)cc3)CC2)cc1 [Compound 25] | 100 | 100 |
| [O-][N+]1(Cc2ccc(OCC3(c4ccccc4)OCCO3)cc2)CCC(C(O)(c2ccc(OC(F)(F)F)cc2)c2ccc(OC(F)(F)F)cc2)CC1 (stereo not drawn) [Compound 185] | 100 | 100 |
| CC1COC(COc2ccc(C[N+]3([O-])CCC(C(O)(c4ccc(OC(F)(F)F)cc4)c4ccc(OC(F)(F)F)cc4)CC3)cc2)O1 (stereo not drawn) [Compound 194] | 100 | 100 |
| CCC1COC(c2ccc(C[N+]3([O-])CCC(C(O)(c4ccc(OC(F)(F)F)cc4)c4ccc(OC(F)(F)F)cc4)CC3)cc2)O1 (stereo not drawn) [Compound 62] | 100 | 100 |
| OC(c1ccc(OC(F)(F)F)cc1)(c1ccc(OC(F)(F)F)cc1)C1CCN(Cc2ccc(C3O[C@H]4CCC[C@H]4O3)cc2)CC1 (stereo partly drawn) [Compound 119] | 100 | 100 |
| OC(c1ccc(OC(F)(F)F)cc1)(c1ccc(OC(F)(F)F)cc1)C1CCN(Cc2ccc(C3OCC(COc4ccccc4)O3)cc2)CC1 (stereo not drawn) [Compound 92] | 100 | 100 |
| CC1(c2ccc(CN3CCC(C(O)(c4ccc(OC(F)(F)F)cc4)c4ccc(OC(F)(F)F)cc4)CC3)cc2)OCCO1 [Compound 8] | 100 | 100 |
| COCC1COC(COc2ccc(C[N+]3([O-])CCC(C(O)(c4ccc(OC(F)(F)F)cc4)c4ccc(OC(F)(F)F)cc4)CC3)cc2)O1 (stereo not drawn) [Compound 197] | 100 | 100 |
| COc1ccc(C2(COc3ccc(C[N+]4([O-])CCC(C(O)(c5ccc(OC(F)(F)F)cc5)c5ccc(OC(F)(F)F)cc5)CC4)cc3)OCCO2)cc1 (stereo not drawn) [Compound 191] | 100 | 100 |
| CC1CCOC(c2ccc(C[N+]3([O-])CCC(C(O)(c4ccc(OC(F)(F)F)cc4)c4ccc(OC(F)(F)F)cc4)CC3)cc2)O1 (stereo not drawn) [Compound 68] | 100 | 100 |
| OC(c1ccc(OC(F)(F)F)cc1)(c1ccc(OC(F)(F)F)cc1)C1CCN(Cc2ccc(C3OCCC(c4ccccc4)O3)cc2)CC1 (stereo not drawn) [Compound 55] | 100 | 100 |
| OC(c1ccc(OC(F)(F)F)cc1)(c1ccc(OC(F)(F)F)cc1)C1CCN(Cc2ccc(C3OCCO3)c(C(F)(F)F)c2)CC1 [Compound 172] | 100 | 100 |
| CC1(C)OC(c2ccc(CN3CCC(C(O)(c4ccc(OC(F)(F)F)cc4)c4ccc(OC(F)(F)F)cc4)CC3)cc2)OC1(C)C [Compound 122] | 100 | 100 |
| [O-][N+]1(Cc2ccc(C3O[C@H]4CCC[C@H]4O3)cc2)CCC(C(O)(c2ccc(OC(F)(F)F)cc2)c2ccc(OC(F)(F)F)cc2)CC1 (stereo partly drawn) [Compound 123] | 100 | 100 |
